Structures are written as SMILES. Structures can show the parent of a compound that is named as a salt.

The assay has as its system K562 cells, human proerythroblast cells. Description: Hemoglobin production in K562 cells (fluorescence of the porphyrin ring). Format: cell-based. Conditions: 144 h, test compound 6 μM, 3+3 days, non-stimulated state = 100%, read-out: production amount of hemoglobin, % of control (6 μM). The protocol: K562 cells (obtained from ATCC), which are human proerythroblast cells, were seeded at a density of 1×10^5 cells/1 mL on a 24-well plate by using complete medium (RPMI-1640 medium comprising 10% bovine fetal serum). After adding the test compound having 1000× concentration (1 μL), the cells were incubated for three days in a CO2 incubator (37° C., 5% CO2). After exchanging the medium, the cells were further incubated for three days. Then, the cells were collected and counted. After adjusting them to have 3×10^5 cells, the amount of hemoglobin produced in the cells was determined by measuring fluorescence of the porphyrin ring. Specifically, the cells which had been collected by centrifugation were suspended in 2 M oxalic acid solution (500 μL) and boiled for 30 minutes under heating. After cooling the cells, the fluorescence intensity was measured by Fluorescence micro plate reader (Spectra MAX GeminiEM, manufactured by Molecular Devices Corporation) ([…]). When hemoglobin amount in non-stimulated state, i.e., without addition of any compound, was 100%, the production amount of hemoglobin induced by each compound was calculated (% of control).
With `CC(=O)N1c2cc(F)ccc2[C@H](Oc2ccccc2)C[C@@H]1C` (relative stereo) [Compound 32, cis-1-acetyl-7-fluoro-2-methyl-4-phenoxy-1,2,3,4-tetrahydroquinoline], the activity at 6 µM is 145%.

As to `CC(=O)N1c2c(F)cccc2[C@H](Oc2ccccc2)C[C@@H]1C` (relative stereo) [Compound 33, cis-1-acetyl-8-fluoro-2-methyl-4-phenoxy-1,2,3,4-tetrahydroquinoline], the activity at 6 µM was 115%.

Take `CC(=O)N1c2ccc(F)cc2[C@H](Oc2ccccc2)C[C@@H]1C` (relative stereo) [Compound 35, cis-1-acetyl-6-fluoro-2-methyl-4-phenoxy-1,2,3,4-tetrahydroquinoline]: the activity at 6 µM was found to be 287%.

Regarding `CC(=O)N1c2cc(F)ccc2[C@H](Nc2cccc(F)c2)C[C@@H]1C` (relative stereo) [Compound 58, cis-1-acetyl-7-fluoro-4-[(3-fluorophenyl)amino]-2-methyl-1,2,3,4-tetrahydroquinoline], the activity at 6 µM came to 107%.

As to `CC(=O)N1c2ccccc2[C@H](Oc2ccc(OCc3ccccc3)cc2)C[C@@H]1C` (relative stereo) [Compound 64, cis-1-acetyl-4-(4-benzyloxyphenoxy)-2-methyl-1,2,3,4-tetrahydroquinoline], the activity at 6 µM was determined as 113%.

For the compound `CC(=O)N1c2ccc(C(N)=O)cc2[C@H](Nc2ccc(NS(C)(=O)=O)cc2)C[C@@H]1C` (relative stereo) [Compound 102, cis-1-acetyl-4-[(4-methanesulfonylaminophenyl)amino]-2-methyl-1,2,3,4-tetrahydroquinoline-6-carboxamide], the activity at 6 µM was 91%.

For the compound `CC(=O)N1c2ccc(C(N)=O)cc2[C@H](Nc2ccc(CC(N)=O)cc2)C[C@@H]1C` (relative stereo) [Compound 106, cis-1-acetyl-4-[(4-carbamoylmethylphenyl)amino]-2-methyl-1,2,3,4-tetrahydroquinoline-6-carboxamide], the activity at 6 µM stood at 227%.

Regarding `CC(=O)N1c2ccccc2[C@H](Nc2ccccc2C(=O)O)C[C@@H]1C` (relative stereo) [Compound 109, cis-1-acetyl-4-[(2-carboxyphenyl)amino]-2-methyl-1,2,3,4-tetrahydroquinoline], the activity at 6 µM worked out at 229%.

For the compound `CC(=O)N1c2ccccc2[C@H](Nc2ccc(Cc3ccccc3)cc2)C[C@@H]1C` (relative stereo) [Compound 112, cis-1-acetyl-4-[(4-benzylphenyl)amino]-2-methyl-1,2,3,4-tetrahydroquinoline], the activity at 6 µM is 139%.

With `COc1ccc2c(c1)C(Nc1ccc(F)cc1)CC(C)N2C(C)=O` (stereo not shown) [Compound 37, 1-acetyl-4-[(4-fluorophenyl)amino]-2-methyl-6-methoxy-1,2,3,4-tetrahydroquinoline], the activity at 6 µM was 494%.

As to `COc1ccc2c(c1)N(C(C)=O)C(C)CC2Nc1ccccc1` (stereo not shown) [Compound 48, 1-acetyl-2-methyl-7-methoxy-4-phenylamino-1,2,3,4-tetrahydroquinoline], the activity at 6 µM was found to be 139%.

For the compound `CCC1CC(Nc2ccccc2)c2ccccc2N1C(C)=O` (stereo not shown) [Compound 59, 1-acetyl-2-ethyl-4-phenylamino-1,2,3,4-tetrahydroquinoline], the activity at 6 µM was determined as 108%.

Take `CC(=O)N1CC(C)(C)C(Nc2ccccc2)c2ccccc21` (stereo not drawn) [Compound 60, cis-1-acetyl-3,3-dimethyl-4-phenylamino-1,2,3,4-tetrahydroquinoline]: the activity at 6 µM was 113%.

Regarding `COc1cccc2c1N(C(C)=O)C(C)CC2Nc1ccccc1` (stereo not shown) [Compound 61, 1-acetyl-4-phenylamino-8-methoxy-2-methyl-1,2,3,4-tetrahydroquinoline], the activity at 6 µM is 132%.

As to `CC(=O)N1c2c(Br)cccc2C(Nc2ccccc2)CC1C` (stereo not shown) [Compound 63, 1-acetyl-8-bromo-4-phenylamino-2-methyl-1,2,3,4-tetrahydroquinoline], the activity at 6 µM came out at 98%.

Consider `CC1CC(Nc2ccc(F)cc2)c2cc(F)ccc2N1C(=O)C1CCCC1` (stereo not shown) [Compound 66, 1-cyclopentanecarbonyl-6-fluoro-2-methyl-4-[(4-fluorophenyl)amino]-1,2,3,4-tetrahydroquinoline], for which the activity at 6 µM is 151%.

With `CC(=O)N1c2ccccc2C(Oc2ccc([N+](=O)[O-])cc2)CC1C` (stereo not shown) [Compound 67, 1-acetyl-2-methyl-4-(4-nitrophenoxy)-1,2,3,4-tetrahydroquinoline], the activity at 6 µM is 119%.

As to `CC(=O)N1c2ccccc2C(Oc2ccc(N)cc2)CC1C` (stereo not shown) [Compound 68, 1-acetyl-4-(4-aminophenoxy)-2-methyl-1,2,3,4-tetrahydroquinoline], the activity at 6 µM was 154%.

On to `CC(=O)N1c2ccc(NCCO)cc2C(Nc2ccc(Cl)cc2)CC1C` (stereo not shown) [Compound 82, 1-acetyl-4-[(4-chlorophenyl)amino]-6-[(2-hydroxy)ethylamino]-2-methyl-1,2,3,4-tetrahydroquinoline], for which the activity at 6 µM was determined as 325%.

Take `CC(=O)N1c2ccc(N3CC(C)OC(C)C3)cc2C(Nc2ccc(Cl)cc2)CC1C` (stereo not drawn) [Compound 83, 1-acetyl-4-[(4-chlorophenyl)amino]-6-[(cis-3,5-dimethyl)morpholino]-2-methyl-1,2,3,4-tetrahydroquinoline]: the activity at 6 µM was 282%.

Consider `CC(=O)N1c2ccc(N3CCN(C(=O)C(C)C)CC3)cc2C(Nc2ccc(Cl)cc2)CC1C` (stereo not shown) [Compound 84, 1-acetyl-4-[(4-chlorophenyl)amino]-6-[(4-isopropylcarbonyl)piperazino]-2-methyl-1,2,3,4-tetrahydroquinoline], for which the activity at 6 µM came out at 286%.

`CC(=O)N1c2ccc(N3CCN(C(=O)c4ccccc4)CC3)cc2C(Nc2ccc(Cl)cc2)CC1C` (stereo not shown) [Compound 86, 1-acetyl-6-[(4-benzoyl)piperazino]-2-methyl-4-[(4-chlorophenyl)amino]-1,2,3,4-tetrahydroquinoline]: the activity at 6 µM turned out to be 237%.

Turning to `CCN(CC)C(=O)N1CCN(c2ccc3c(c2)C(Nc2ccc(Cl)cc2)CC(C)N3C(C)=O)CC1` (stereo not shown) [Compound 87, 1-acetyl-4-[(4-chlorophenyl)amino]-6-[4-(N,N-diethylaminocarbonyl)piperazino]-2-methyl-1,2,3,4-tetrahydroquinoline], the activity at 6 µM was 262%.

On to `CC(=O)N1c2ccc(N3CCN(C(=O)NC(C)C)CC3)cc2C(Nc2ccc(Cl)cc2)CC1C` (stereo not shown) [Compound 88, 1-acetyl-4-[(4-chlorophenyl)amino]-6-[4-(isopropylaminocarbonyl)piperazino]-2-methyl-1,2,3,4-tetrahydroquinoline], for which the activity at 6 µM came out at 112%.

Consider `CC(=O)N1c2ccc(N3CCOCC3)cc2C(Nc2ccc(CC(=O)O)cc2)CC1C` (stereo not shown) [Compound 89, 1-acetyl-4-[(4-carboxymethylphenyl)amino]-6-morpholino-2-methyl-1,2,3,4-tetrahydroquinoline], for which the activity at 6 µM is 154%.

Turning to `CC(=O)N1c2ccc(N3CCOCC3)cc2C(Nc2ccc(CC(N)=O)cc2)CC1C` (stereo not shown) [Compound 90, 1-acetyl-4-[(4-carbamoylmethylphenyl)amino]-2-methyl-6-morpholino-1,2,3,4-tetrahydroquinoline], the activity at 6 µM was 241%.

`CC(=O)N1CCN(c2ccc3c(c2)C(Nc2ccc(CC(=O)O)cc2)CC(C)N3C(C)=O)CC1` (stereo not shown) [Compound 91, 1-acetyl-6-(4-acetylpiperazinyl)-4-[(4-carboxymethylphenyl)amino]-2-methyl-1,2,3,4-tetrahydroquinoline]: the activity at 6 µM came to 130%.

With `CC(=O)N1c2ccc(C(=O)N3CCOCC3)cc2C(Nc2ccc(Cl)cc2)CC1C` (stereo not shown) [Compound 93, 1-acetyl-4-[(4-chlorophenyl)amino]-6-[(1-morpholino)carbonyl]-2-methyl-1,2,3,4-tetrahydroquinoline.hydrochloride], the activity at 6 µM came out at 245%.

Turning to `CC(=O)N1CCN(c2ccc3c(c2)C(Nc2ccc(N4CCOCC4)cc2)CC(C)N3C(C)=O)CC1` (stereo not drawn) [Compound 94, cis-1-acetyl-6-[(4-acetyl)piperazino]-2-methyl-4-[(4-morpholinophenyl)amino]-1,2,3,4-tetrahydroquinoline.3 hydrochloride], the activity at 6 µM stood at 199%.

As for `CC(=O)Nc1ccc2c(c1)C(Nc1ccc(Cl)cc1)CC(C)N2C(C)=O` (stereo not shown) [Compound 96, 1-acetyl-6-acetylamino-4-[(4-chlorophenyl)amino]-2-methyl-1,2,3,4-tetrahydroquinoline], the activity at 6 µM was determined as 530%.

As for `CC(=O)N1c2ccc(NS(C)(=O)=O)cc2C(Nc2ccc(N3CCOCC3)cc2)CC1C` (stereo not shown) [Compound 98, 1-acetyl-6-methanesulfonylamino-2-methyl-4-[(4-morpholinophenyl)amino]-1,2,3,4-tetrahydroquinoline], the activity at 6 µM is 56%.

As to `CCOC(=O)Cc1ccc(NC2CC(C)N(C(C)=O)c3ccc(NS(C)(=O)=O)cc32)cc1` (stereo not shown) [Compound 99, 1-acetyl-6-methanesulfonylamino-2-methyl-4-[(4-ethoxycarbonylmethylphenyl)amino]-1,2,3,4-tetrahydroquinoline], the activity at 6 µM came out at 69%.

For the compound `CC(=O)N1c2ccc(C(=O)O)cc2C(Nc2ccc(F)cc2)CC1C` (stereo not shown) [Compound 100, 1-acetyl-4-[(4-fluorophenyl)amino]-2-methyl-1,2,3,4-tetrahydroquinoline-6-carboxylic acid], the activity at 6 µM was 105%.

In the case of `CCOC(=O)c1ccc2c(c1)C(Nc1ccc(NS(C)(=O)=O)cc1)CC(C)N2C(C)=O` (stereo not shown) [Compound 101, ethyl 1-acetyl-4-[(4-methanesulfonylaminophenyl)amino]-2-methyl-1,2,3,4-tetrahydroquinoline-6-carboxylate], the activity at 6 µM was determined as 508%.

(Values after US20130172345A1, “1-ACYL-4-(PHENOXY, BENZYLOXY, OR PHENYLAMINO)-1,2,3,4-TETRAHYDROQUINOLINE DERIVATIVES” (KOWA COMPANY, LTD., priority 2007, published 2013).)
